Experimental data: US6362175B1, “Porphyrin compounds for imaging tissue oxygen” (The Trustees of the University of Pennsylvania, priority 1991, dated 2002)
Blank lines part the entries; values can stand above or below the compound they belong to.

Tests used:
Assay type in all cases: physicochemical
[1] = Absorption spectra (Soret and Q bands)
Experimental: (§1) Absorption spectra were recorded on a Beckman DU-64 spectrophotometer. Emission spectra (fluorescence and phosphorescence) were recorded using an AMINCO SPF-500C spectrofluorimeter. ^1H NMR spectra were recorded using a Brucker 300 MHz instrument. Phosphorescence lifetime measurements were performed using a light guide phosphorimeter designed by applicants. HPLC analysis of reaction mixtures was carried out on a SpectraPhysics 8800 gradient system, using an Adsorbosphere HS C4 100×4.6 mm column and methanol:water mixture as a mobile phase.

[2] = Phosphorescence lifetime at zero oxygen, light guide phosphorimeter
Source text: (§2) Solvents for phosphorescence measurements were degassed by three freeze-pump-thaw cycles and stored in a vacuum over sodium benzophenone ketyl (THF) or 4 Å molecular sieves (DMF). The solvents were vacuum transferred immediately prior to the phosphorescence measurements and samples were sealed under high vacuum.
(§3) An enzymatic system (glucose-glucose oxidase-catalase) was used for deoxygenation of aqueous solutions and N2-O2 gas mixtures containing either 2.89% of oxygen or 20% oxygen (air) were used for calibration and measurements of the quenching constants.
as §1

[3] = Quenching of phosphorescence by oxygen (Stern-Volmer quenching constant)
Source text: Phosphorescence of certain chemical compounds is quenched by oxygen according to the Stern-Volmer relationship which is stated as follows:
where T0 and T are the phosphorescence lifetimes in the absence of oxygen, PO2 is the oxygen pressure for a lifetime of T, and kQ is the quenching constant. The constant kQ is related to the frequency of collisions between the excited triplet state molecule and molecular oxygen and the probability of energy transfer occurring when these molecules collide.
as §3, §1

[4] = Phosphorescence spectra of deoxygenated samples; conditions: solvent THF, 25 °C
Experimental: as §2, §1
Phosphorescence of a series of metal-TBP compounds was detected using constant irradiation of samples with light wavelengths at their Q and Soret bands. To observe the phosphorescence phenomena and to record phosphorescence spectra, the samples were intensively deoxygenated. Accordingly, highly degassed dimethylformamide (DMF) or THF were used as solvents. The phosphorescence spectra of LuTPhTBP and PdTPhTBP are depicted in FIGS. 5 and 6, respectively.

[5] = solvent DMF, TPhTNP compounds, average position of split Soret band
[6] = Phy. sol. (aqueous, pH 7.0), 38 °C
[7] = solvent DMF, TBP/TPhTBP compounds
[8] = Phy. sol. adjusted to pH 7.4, 38 °C

Compound: c1ccc(C2=C3N=C(C(c4ccccc4)=c4c5ccccc5c5[n]4[Pb][n]4c2c2ccccc2c4C(c2ccccc2)=C2N=C(C=5c4ccccc4)c4ccccc42)c2ccccc23)cc1 [PbTPhTBP]
Q-band ([1]; solvent Acetone): 663 nm
Soret band ([1]; solvent Acetone): 487 nm

Compound: c1ccc(C2=C3N=C(C(c4ccccc4)=c4c5ccccc5c5[n]4[Zn][n]4c2c2ccccc2c4C(c2ccccc2)=C2N=C(C=5c4ccccc4)c4ccccc42)c2ccccc23)cc1.c1ccncc1.c1ccncc1 [ZnTPhTBP (Pyridine)2]
Q-band ([1]; solvent Acetone): 625 nm
Soret band ([1]; solvent Acetone): 428 nm

Compound: [OH][La]1[n]2c3c4cc5ccccc5cc4c2C(c2ccccc2)=C2N=C(C(c4ccccc4)=c4c5cc6ccccc6cc5c([n]41)=C(c1ccccc1)C1=NC(=C3c3ccccc3)c3cc4ccccc4cc31)c1cc3ccccc3cc12 [La(OH)TPhTNP]
Q-band ([1]; solvent DMF): 708 nm
Soret band [1, 5]: 440 nm

Compound: O=S(=O)(N[C@H]1C(O)O[C@H](CO)[C@@H](O)[C@@H]1O)c1ccc(C2=C3N=C(C(c4ccc(S(=O)(=O)N[C@H]5C(O)O[C@H](CO)[C@@H](O)[C@@H]5O)cc4)=c4c5ccccc5c5[n]4[Pd][n]4c2c2ccccc2c4C(c2ccc(S(=O)(=O)N[C@H]4C(O)O[C@H](CO)[C@@H](O)[C@@H]4O)cc2)=C2N=C(C=5c4ccc(S(=O)(=O)N[C@H]5C(O)O[C@H](CO)[C@@H](O)[C@@H]5O)cc4)c4ccccc42)c2ccccc23)cc1 (stereo partly drawn) [PdTPhTBP (glucosamine)4]
Q-band ([1]; solvent water): 615 nm
Soret band ([1]; solvent water): 409 nm
Phosphorescent lifetime at zero-oxygen concentration [2, 6]: 431 μs
Quenching constant at a temperature of 38° C. [3, 6]: 194 Torr^−1s^−1

Compound: lutetium (Lu) tetraphenyltetranaphthoporphyrin [LuTPhTNP]
Phosphorescent lifetime at zero-oxygen concentration ([2]; solvent DMF, 25 °C): 172 μs

Compound: [OH][Lu]1[n]2c3c4cc5ccccc5cc4c2C(c2ccccc2)=C2N=C(C(c4ccccc4)=c4c5cc6ccccc6cc5c([n]41)=C(c1ccccc1)C1=NC(=C3c3ccccc3)c3cc4ccccc4cc31)c1cc3ccccc3cc12 [Lu(OH)TPhTNP]
Q-band ([1]; solvent DMF): 709 nm
Soret band [1, 5]: 440 nm

Compound: [OH][Lu]1[n]2c3c4ccccc4c2C(c2ccccc2)=C2N=C(C(c4ccccc4)=c4c5ccccc5c([n]41)=C(c1ccccc1)C1=NC(=C3c3ccccc3)c3ccccc31)c1ccccc12 [Lu(OH)TPhTBP, lutetium (hydroxy) meso-tetraphenyltetrabenzoporphyrin]
Q-band ([1]; solvent Acetone): 628 nm
Soret band ([1]; solvent Acetone): 423 nm

Compound: [Zn].c1ccc2c(c1)-c1cc3[nH]c(cc4nc(cc5[nH]c(cc-2n1)c1ccccc51)-c1ccccc1-4)c1ccccc31 [ZnTBP (Pyridine)2, zinc tetrabenzoporphyrin]
Q-band ([1]; solvent DMF): 624 nm
Soret band [1, 7]: 425 nm

Compound: O=C(O)CNS(=O)(=O)c1ccc(C2=C3N=C(C(c4ccc(S(=O)(=O)NCC(=O)O)cc4)=c4c5ccccc5c5[n]4[Pd][n]4c2c2ccccc2c4C(c2ccc(S(=O)(=O)NCC(=O)O)cc2)=C2N=C(C=5c4ccc(S(=O)(=O)NCC(=O)O)cc4)c4ccccc42)c2ccccc23)cc1 [PdTPhTBP (glyc)4]
Q-band ([1]; solvent water): 620 nm
Soret band ([1]; solvent water): 421 nm
Phosphorescent lifetime at zero-oxygen concentration [2, 6]: 408 μs
Quenching constant at a temperature of 38° C. [3, 6]: 186 Torr^−1s^−1

Compound: [OH][La]1[n]2c3c4ccccc4c2C(c2ccccc2)=C2N=C(C(c4ccccc4)=c4c5ccccc5c([n]41)=C(c1ccccc1)C1=NC(=C3c3ccccc3)c3ccccc31)c1ccccc12 [La(OH)TPhTBP]
Q-band ([1]; solvent DMF): 633 nm
Soret band [1, 7]: 432 nm

Next, values leading:

Q-band ([1]; solvent Acetone): 630 nm
Soret band ([1]; solvent Acetone): 431 nm
Compound: [OH][Y]1[n]2c3c4ccccc4c2C(c2ccccc2)=C2N=C(C(c4ccccc4)=c4c5ccccc5c([n]41)=C(c1ccccc1)C1=NC(=C3c3ccccc3)c3ccccc31)c1ccccc12 [Y(OH)TPhTBP]

Q-band ([1]; solvent DMF): 630 nm
Soret band [1, 7]: 437 nm
Compound: c1ccc(C2=C3N=C(C(c4ccccc4)=c4c5ccccc5c5[n]4[Pt][n]4c2c2ccccc2c4C(c2ccccc2)=C2N=C(C=5c4ccccc4)c4ccccc42)c2ccccc23)cc1 [PtTPhTBP]

Q-band ([1]; solvent DMF): 694 nm
Soret band [1, 5]: 415 nm
Phosphorescent lifetime at zero-oxygen concentration ([2]; solvent THF, 25 °C): 165 μs
Compound: c1ccc(C2=C3N=C(C(c4ccccc4)=c4c5cc6ccccc6cc5c5[n]4[Pd][n]4c2c2cc6ccccc6cc2c4C(c2ccccc2)=C2N=C(C=5c4ccccc4)c4cc5ccccc5cc42)c2cc4ccccc4cc23)cc1 [PdTPhTNP]

Q-band ([1]; solvent Acetone): 642 nm
Soret band ([1]; solvent Acetone): 438 nm
Compound: c1ccc(C2=C3N=C(C(c4ccccc4)=c4c5ccccc5c5[n]4[Sn][n]4c2c2ccccc2c4C(c2ccccc2)=C2N=C(C=5c4ccccc4)c4ccccc42)c2ccccc23)cc1 [SnTPhTBP]

Q-band ([1]; solvent CHCl3): 610 nm
Soret band ([1]; solvent CHCl3): 420 nm
Phosphorescence maximum [4]: 784 nm
Phosphorescent lifetime at zero-oxygen concentration ([2]; solvent THF, 25 °C): 127 μs
Compound: c1ccc(C2=C3N=C(C(c4ccccc4)=c4c5ccccc5c5[n]4[Pd][n]4c2c2ccccc2c4C(c2ccccc2)=C2N=C(C=5c4ccccc4)c4ccccc42)c2ccccc23)cc1 [PdTPhTBP, palladium meso-tetraphenyltetrabenzoporphyrin]

Q-band ([1]; solvent DMF): 700 nm
Soret band [1, 5]: 425 nm
Compound: c1ccc(C2=C3N=C(C(c4ccccc4)=c4c5cc6ccccc6cc5c5[n]4[Pt][n]4c2c2cc6ccccc6cc2c4C(c2ccccc2)=C2N=C(C=5c4ccccc4)c4cc5ccccc5cc42)c2cc4ccccc4cc23)cc1 [PtTPhTNP]

Q-band ([1]; solvent water): 630 nm
Soret band ([1]; solvent water): 415 nm
Phosphorescent lifetime at zero-oxygen concentration [2, 8]: 377 μs
Quenching constant at a temperature of 38° C. [3, 8]: 185 Torr^−1s^−1
Compound: O=C(O)Cc1ccc(NS(=O)(=O)c2ccc(C3=C4N=C(C(c5ccc(S(=O)(=O)Nc6ccc(CC(=O)O)cc6)cc5)=c5c6ccccc6c6[n]5[Pd][n]5c3c3ccccc3c5C(c3ccc(S(=O)(=O)Nc5ccc(CC(=O)O)cc5)cc3)=C3N=C(C=6c5ccc(S(=O)(=O)Nc6ccc(CC(=O)O)cc6)cc5)c5ccccc53)c3ccccc34)cc2)cc1 [PdTPhTBP (sulfonamide)4]
